Assay results as given in ChEMBL document CHEMBL1201862, “PubChem BioAssay data set” (2004).
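Assay format: 96-well plates, 48-hour exposure. GI50 = concentration required for 50% inhibition of growth.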 Active and inactive are the calls of the source. Rule as the data show it: active = GI50 up to about 1.1 µM and inactive = higher.

Legend:
Assay in all cases: inhibition of tumour cell growth, NCI panel, 48 h
SK-MEL-28 = tested on: SK-MEL-28
UACC-62 = tested on: UACC-62
ACHN = tested on: ACHN
HCT-116 = tested on: HCT-116
SK-MEL-5 = tested on: SK-MEL-5
SF-268 = tested on: SF-268
U-251 = tested on: U-251
DU-145 = tested on: DU-145
HCT-15 = tested on: HCT-15
LOX IMVI = tested on: LOX IMVI
HOP-62 = tested on: HOP-62
TK-10 = tested on: TK-10
SN12C = tested on: SN12C
OVCAR-4 = tested on: OVCAR-4
SK-OV-3 = tested on: SK-OV-3
DMS-273 = tested on: DMS-273
PC-3 = tested on: PC-3
A549 = tested on: A549
RPMI-8226 = tested on: RPMI-8226
SW-620 = tested on: SW-620
M14 = tested on: M14
SF-539 = tested on: SF-539
UO-31 = tested on: UO-31
786-0 = tested on: 786-0
SK-MEL-2 = tested on: SK-MEL-2
K562 = tested on: K562
OVCAR-3 = tested on: OVCAR-3
SNB-75 = tested on: SNB-75
EKVX = tested on: EKVX
SR = tested on: SR
RXF 393 = tested on: RXF 393
DLD-1 = tested on: DLD-1
NCI-H23 = tested on: NCI-H23
Malme-3M = tested on: Malme-3M
T47D = tested on: T47D
MOLT-4 = tested on: MOLT-4
OVCAR-5 = tested on: OVCAR-5
HOP-92 = tested on: HOP-92
A498 = tested on: A498
KM-20L2 = tested on: KM-20L2
SNB-19 = tested on: SNB-19
OVCAR-8 = tested on: OVCAR-8
HL-60 = tested on: HL-60
HOP-18 = tested on: HOP-18
KM12 = tested on: KM12
MCF7 = tested on: MCF7
SF-295 = tested on: SF-295
CAKI-1 = tested on: CAKI-1
XF498 = tested on: XF498
UACC-257 = tested on: UACC-257
LXFL 529 = tested on: LXFL 529
HCC 2998 = tested on: HCC 2998
RXF 631 = tested on: RXF 631
NCI-H522 = tested on: NCI-H522
M19-MEL = tested on: M19-MEL
MDA-MB-435 = tested on: MDA-MB-435
SNB-78 = tested on: SNB-78
NCI-H226 = tested on: NCI-H226
HT-29 = tested on: HT-29
CCRF-CEM = tested on: CCRF-CEM
COLO 205 = tested on: COLO 205
NCI-H460 = tested on: NCI-H460
BT-549 = tested on: BT-549
IGROV-1 = tested on: IGROV-1
DMS-114 = tested on: DMS-114

Measured: GI50

CCCCCCCCCCCCCCCC(=O)OCC1OC(OC)C2NP(=O)(N(CCCl)CCCl)OC1C2O (stereo not given)
3140 nM: HCT-15
inactive: SK-MEL-28 22200 nM | UACC-62 1230 nM | HCT-116 3300 nM | SK-MEL-5 7530 nM | SF-268 1670 nM | U-251 1320 nM | DU-145 7410 nM | LOX IMVI 1280 nM | TK-10 10900 nM | OVCAR-4 8510 nM | SK-OV-3 11500 nM | PC-3 2500 nM | A549 6110 nM | RPMI-8226 2510 nM | SW-620 2220 nM | M14 4310 nM | UO-31 7360 nM | SK-MEL-2 8300 nM | K562 2360 nM | OVCAR-3 3160 nM | SNB-75 2910 nM | EKVX 22000 nM | RXF 393 1680 nM | DLD-1 2700 nM | NCI-H23 1210 nM | Malme-3M 14100 nM | T47D 2730 nM | OVCAR-5 20800 nM | A498 10600 nM | KM-20L2 15800 nM | SNB-19 2610 nM | OVCAR-8 2510 nM | HOP-18 8530 nM | KM12 16300 nM | SF-295 4480 nM | XF498 2310 nM | UACC-257 12100 nM | LXFL 529 2430 nM | HCC 2998 2540 nM | RXF 631 6890 nM | M19-MEL 15600 nM | MDA-MB-435 7550 nM | SNB-78 3300 nM | NCI-H226 10900 nM | HT-29 17100 nM | COLO 205 4220 nM | BT-549 2300 nM | IGROV-1 19000 nM | DMS-114 1540 nM
active: ACHN 953 nM | HOP-62 1000 nM | SN12C 1050 nM | DMS-273 152 nM | SF-539 887 nM | 786-0 440 nM | SR 17.7 nM | MOLT-4 28.8 nM | HOP-92 822 nM | HL-60 117 nM | MCF7 366 nM | CAKI-1 752 nM | NCI-H522 916 nM | CCRF-CEM 142 nM | NCI-H460 540 nM
